Patent US8334287B2 (Hoffmann-La Roche Inc., priority 2009, dated 2012)

Each molecule was assayed against T1, human mGlu5a receptor (Homo sapiens, UniProt P41594) (assay: mGlu5a receptor binding, displacement of [3H]MPEP). Conditions: competing radioligand [3H]MPEP; human mGlu5a receptor transiently transfected into EBNA cells; Ki=IC50/1+L/Kd.
T1 construct: expressed in transfected cells; host or cells: EBNA cells (transient transfection); membranes prepared from them
Experimental: For binding experiments, cDNA encoding human mGlu5a receptor was transiently transfected into EBNA cells using a procedure described by E.-J. Schlaeger and K. Christensen (Cytotechnology 1998, 15, 1-13). For functional assays, [Ca^2+]i measurements were performed largely as described previously (Porter et al., Br J. Pharmacol 1999, 128, 13-20) on stably expressed recombinant human mGlu 5a receptors in HEK-293 cells. The cells were dye loaded using Fluo 4-AM (purchased from Molecular Probes, 2 μM final concentration) [Ca^2+]i measurements were performed using a fluorometric imaging plate reader (FLIPR, Molecular Devices Corporation, La Jolla, Calif., USA). Antagonist evaluation was performed following a 5 minute preincubation with the test compounds followed by the addition of a submaximal addition of agonist.
The inhibition (antagonists) curves were fitted with a four parameter logistic equation giving IC50, and Hill coefficient using the iterative non linear curve fitting software Xcel fit.
The Ki values of the compounds tested are given. The Ki value is defined by the following formula: Ki=IC50/1+L/Kd in which the IC50 values are those concentrations of the compounds tested in which causes 50% inhibition of the competing radioligand ([^3H]MPEP). [L] is the concentration of radioligand used in the binding experiment and the Kd value of the radioligand is empiracally determined for each batch of membranes prepared.

T1 sequence (P41594 21-1180 isoform P41594-2 limits assumed): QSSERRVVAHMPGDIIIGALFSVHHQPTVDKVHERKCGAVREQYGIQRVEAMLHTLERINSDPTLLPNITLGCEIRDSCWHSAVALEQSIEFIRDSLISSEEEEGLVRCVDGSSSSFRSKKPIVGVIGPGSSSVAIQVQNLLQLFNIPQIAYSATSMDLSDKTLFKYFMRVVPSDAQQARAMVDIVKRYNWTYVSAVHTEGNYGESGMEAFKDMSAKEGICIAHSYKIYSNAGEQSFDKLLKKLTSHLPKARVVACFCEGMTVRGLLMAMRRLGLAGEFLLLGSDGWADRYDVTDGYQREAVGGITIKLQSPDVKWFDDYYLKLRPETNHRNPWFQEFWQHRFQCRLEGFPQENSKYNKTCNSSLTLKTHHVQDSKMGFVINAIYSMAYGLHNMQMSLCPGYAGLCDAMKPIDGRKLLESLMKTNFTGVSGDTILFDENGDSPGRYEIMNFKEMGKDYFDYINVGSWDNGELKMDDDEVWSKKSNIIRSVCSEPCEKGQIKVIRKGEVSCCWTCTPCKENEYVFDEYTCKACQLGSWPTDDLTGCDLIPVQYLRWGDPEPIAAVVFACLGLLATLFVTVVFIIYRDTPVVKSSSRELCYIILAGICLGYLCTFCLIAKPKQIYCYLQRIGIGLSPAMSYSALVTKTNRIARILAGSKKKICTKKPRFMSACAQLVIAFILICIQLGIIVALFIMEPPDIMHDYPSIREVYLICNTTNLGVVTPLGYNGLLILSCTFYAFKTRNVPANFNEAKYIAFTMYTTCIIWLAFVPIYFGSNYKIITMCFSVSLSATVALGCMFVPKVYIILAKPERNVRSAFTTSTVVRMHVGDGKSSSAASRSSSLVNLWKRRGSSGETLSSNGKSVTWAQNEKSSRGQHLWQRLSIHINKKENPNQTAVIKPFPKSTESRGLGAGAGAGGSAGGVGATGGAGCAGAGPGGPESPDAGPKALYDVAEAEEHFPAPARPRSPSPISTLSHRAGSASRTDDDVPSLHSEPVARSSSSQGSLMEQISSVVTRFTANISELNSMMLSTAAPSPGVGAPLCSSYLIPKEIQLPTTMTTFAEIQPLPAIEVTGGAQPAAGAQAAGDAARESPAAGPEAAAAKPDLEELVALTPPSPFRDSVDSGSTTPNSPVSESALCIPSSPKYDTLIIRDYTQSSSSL

| SMILES | Ki |
| --- | --- |
| Cc1nc(C#Cc2ccnc(Cl)c2)c(C)n1-c1cnn(C)c(=O)c1 [Example 43, 5-[4-(2-chloro-pyridin-4-ylethynyl)-2,5-dimethyl-imidazol-1-yl]-2-methyl-2H-pyridazin-3-one] | 306 nM |
| COCCn1ccc(-n2c(C)nc(C#Cc3cccc(C)c3)c2C)cc1=O [Example 34, 4-[2,5-dimethyl-4-m-tolylethynyl-imidazol-1-yl]-1-(2-methoxy-ethyl)-1H-pyridin-2-one] | 87 nM |
| Cc1nc(C#Cc2cccc(Cl)c2)cn1-c1cccc(=O)n1C [Example 15, 6-[4-(3-chloro-phenylethynyl)-2-methyl-imidazol-1-yl]-1-methyl-1H-pyridin-2-one] | 154 nM |
| Cc1nc(C#Cc2ccnc(Cl)c2)cn1-c1cc[nH]c(=O)c1 [Example 6, 4-[4-(2-chloro-pyridin-4-ylethynyl)-2-methyl-imidazol-1-yl]-1H-pyridin-2-one] | 146 nM |
| Cc1nc(C#Cc2ccnc(Cl)c2)c(C)n1-c1cc(=O)n(C)cn1 [Example 46, 6-[4-(2-chloro-pyridin-4-ylethynyl)-2,5-dimethyl-imidazol-1-yl]-3-methyl-3H-pyrimidin-4-one] | 569 nM |
| CCn1ccc(-n2c(C)nc(C#Cc3ccnc(Cl)c3)c2C)cc1=O [Example 37, 4-[4-(2-chloro-pyridin-4-ylethynyl)-2,5-dimethyl-imidazol-1-yl]-1-ethyl-1H-pyridin-2-one] | 238 nM |
| Cc1nc(C#Cc2ccnc(Cl)c2)cn1-c1cc(=O)n(C)cn1 [Example 24, 6-[4-(2-chloro-pyridin-4-ylethynyl)-2-methyl-imidazol-1-yl]-3-methyl-3H-pyrimidin-4-one] | 277 nM |
| Cc1nc(C#Cc2cccc(Cl)c2)c(C)n1-c1cc[nH]c(=O)c1 [Example 25, 4-[4-(3-chloro-phenylethynyl)-2,5-dimethyl-imidazol-1-yl]-1H-pyridin-2-one] | 148 nM |
| COCCn1ccc(-n2c(C)nc(C#Cc3ccnc(Cl)c3)c2C)cc1=O [Example 39, 4-[4-(2-chloro-pyridin-4-ylethynyl)-2,5-dimethyl-imidazol-1-yl]-1-(2-methoxy-ethyl)-1H-pyridin-2-one] | 285 nM |
| Cc1nc(C#Cc2cccc(Cl)c2)c(C)n1-c1cnn(C)c(=O)c1 [Example 42, 5-[4-(3-chloro-phenylethynyl)-2,5-dimethyl-imidazol-1-yl]-2-methyl-2H-pyridazin-3-one] | 38 nM |
| Cc1nc(C#Cc2ccnc(Cl)c2)c(C)n1-c1ccn(C)c(=O)c1 [Example 36, 4-[4-(2-chloro-pyridin-4-ylethynyl)-2,5-dimethyl-imidazol-1-yl]-1-methyl-1H-pyridin-2-one] | 173 nM |
| Cc1nc(C#Cc2cccc(Cl)c2)cn1-c1cccc(O)n1 [Example 14, 6-[4-(3-chloro-phenylethynyl)-2-methyl-imidazol-1-yl]-pyridin-2-ol] | 42 nM |
| Cc1nc(C#Cc2cccc(F)c2)c(C)n1-c1ccn(C)c(=O)c1 [Example 41, 4-[4-(3-fluoro-phenylethynyl)-2,5-dimethyl-imidazol-1-yl]-1-methyl-1H-pyridin-2-one] | 52 nM |
| Cc1nc(C#Cc2cccc(Cl)c2)c(C)n1-c1ccn(CCO)c(=O)c1 [Example 28, 4-[4-(3-chloro-phenylethynyl)-2,5-dimethyl-imidazol-1-yl]-1-(2-hydroxy-ethyl)-1H-pyridin-2-one] | 222 nM |
| CCn1ccc(-n2c(C)nc(C#Cc3cccc(Cl)c3)c2C)cc1=O [Example 27, 4-[4-(3-chloro-phenylethynyl)-2,5-dimethyl-imidazol-1-yl]-1-ethyl-1H-pyridin-2-one] | 40 nM |
| Cc1nc(C#Cc2ccnc(Cl)c2)c(C)n1-c1cc[nH]c(=O)c1 [Example 35, 4-[4-(2-chloro-pyridin-4-ylethynyl)-2,5-dimethyl-imidazol-1-yl]-1H-pyridin-2-one] | 347 nM |
| COCCn1ccc(-n2c(C)nc(C#Cc3cccc(Cl)c3)c2C)cc1=O [Example 29, 4-[4-(3-chloro-phenylethynyl)-2,5-dimethyl-imidazol-1-yl]-1-(2-methoxy-ethyl)-1H-pyridin-2-one] | 58 nM |
| Cc1cccc(C#Cc2nc(C)n(-c3cc[nH]c(=O)c3)c2C)c1 [Example 30, 4-(2,5-dimethyl-4-m-tolylethynyl-imidazol-1-yl)-1H-pyridin-2-one] | 211 nM |

Continued, values first:

| Ki | SMILES |
| --- | --- |
| 265 nM | Cc1cccc(C#Cc2cn(-c3ccn(CCO)c(=O)c3)c(C)n2)c1 [Example 11, 1-(2-Hydroxy-ethyl)-4-(2-methyl-4-m-tolylethynyl-imidazol-1-yl)-1H-pyridin-2-one] |
| 40 nM | Cc1nc(C#Cc2cccc(Cl)c2)cn1-c1cc[nH]c(=O)c1 [Example 1, 4-[4-(3-chloro-phenylethynyl)-2-methyl-imidazol-1-yl]-1H-pyridin-2-one] |
| 75 nM | CCn1ccc(-n2cc(C#Cc3cccc(C)c3)nc2C)cc1=O [Example 10, 1-Ethyl-4-(2-methyl-4-m-tolylethynyl-imidazol-1-yl)-1H-pyridin-2-one] |
| 40 nM | Cc1nc(C#Cc2cccc(Cl)c2)cn1-c1cnn(C)c(=O)c1 [Example 21, 5-[4-(3-chloro-phenylethynyl)-2-methyl-imidazol-1-yl]-2-methyl-2H-pyridazin-3-one] |
| 42 nM | Cc1cccc(C#Cc2cn(-c3ccn(C)c(=O)c3)c(C)n2)c1 [Example 9, 1-Methyl-4-(2-methyl-4-m-tolylethynyl-imidazol-1-yl)-1H-pyridin-2-one] |
| 37 nM | CCn1ncc(-n2cc(C#Cc3cccc(Cl)c3)nc2C)cc1=O [Example 52, 5-[4-(3-Chloro-phenylethynyl)-2-methyl-imidazol-1-yl]-2-ethyl-2H-pyridazin-3-one] |
| 94 nM | CCOC(=O)Cn1ccc(-n2cc(C#Cc3cccc(C)c3)nc2C)cc1=O [Example 13, [4-(2-Methyl-4-m-tolylethynyl-imidazol-1-yl)-2-oxo-2H-pyridin-1-yl]-acetic acid ethyl ester] |
| 52 nM | Cc1cccc(C#Cc2cn(-c3cnn(C)c(=O)c3)c(C)n2)c1 [Example 23, 2-Methyl-5-(2-methyl-4-m-tolylethynyl-imidazol-1-yl)-2H-pyridazin-3-one] |
| 204 nM | CCn1ncc(-n2cc(C#Cc3ccnc(Cl)c3)nc2C)cc1=O [Example 53, 5-[4-(2-chloro-pyridin-4-ylethynyl)-2-methyl-imidazol-1-yl]-2-ethyl-2H-pyridazin-3-one] |
| 61 nM | Cc1cccc(C#Cc2nc(C)n(-c3ccn(C)c(=O)c3)c2C)c1 [Example 31, 4-[2,5-dimethyl-4-m-tolylethynyl-imidazol-1-yl]-1-methyl-1H-pyridin-2-one] |
| 44 nM | COCCn1ccc(-n2cc(C#Cc3cccc(Cl)c3)nc2C)cc1=O [Example 5, 4-[4-(3-chloro-phenylethynyl)-2-methyl-imidazol-1-yl]-1-(2-methoxy-ethyl)-1H-pyridin-2-one] |
| 384 nM | Cc1nc(C#Cc2ccnc(Cl)c2)cn1-c1cnn(C)c(=O)c1 [Example 22, 5-[4-(2-chloro-pyridin-4-ylethynyl)-2-methyl-imidazol-1-yl]-2-methyl-2H-pyridazin-3-one] |
| 53 nM | CCn1ncc(-n2cc(C#Cc3cccc(C)c3)nc2C)cc1=O [Example 51, 2-ethyl-5-(2-methyl-4-m-tolylethynyl-imidazol-1-yl)-2H-pyridazin-3-one] |
| 113 nM | Cc1cccc(C#Cc2cn(-c3cc[nH]c(=O)c3)c(C)n2)c1 [Example 8, 4-(2-Methyl-4-m-tolylethynyl-imidazol-1-yl)-1H-pyridin-2-one] |
| 71 nM | Cc1cccc(C#Cc2nc(C)n(-c3cnn(C)c(=O)c3)c2C)c1 [Example 44, 5-(2,5-dimethyl-4-m-tolylethynyl-imidazol-1-yl)-2-methyl-2H-pyridazin-3-one] |
| 345 nM | Cc1nc(C#Cc2cccc(Cl)c2)cn1-c1ccn(CCO)c(=O)c1 [Example 4, 4-[4-(3-chloro-phenylethynyl)-2-methyl-imidazol-1-yl]-1-(2-hydroxy-ethyl)-1H-pyridin-2-one] |
| 559 nM | Cc1nc(C#Cc2ccnc(Cl)c2)cn1-c1cccc(=O)n1C [Example 18, 6-[4-(2-chloro-pyridin-4-ylethynyl)-2-methyl-imidazol-1-yl]-1-methyl-1H-pyridin-2-one] |
| 69 nM | Cc1nc(C#Cc2cccc(Cl)c2)cn1-c1ccn(C)c(=O)c1 [Example 2, 4-[4-(3-chloro-phenylethynyl)-2-methyl-imidazol-1-yl]-1-methyl-1H-pyridin-2-one] |
| 180 nM | Cc1nc(C#Cc2ccnc(Cl)c2)cn1-c1ccn(C)c(=O)c1 [Example 7, 4-[4-(2-chloro-pyridin-4-ylethynyl)-2-methyl-imidazol-1-yl]-1-methyl-1H-pyridin-2-one] |
| 46 nM | CCn1ccc(-n2c(C)nc(C#Cc3cccc(C)c3)c2C)cc1=O [Example 32, 4-[2,5-dimethyl-4-m-tolylethynyl-imidazol-1-yl]-1-ethyl-1H-pyridin-2-one] |
| 597 nM | COCCn1ncc(-n2cc(C#Cc3ccnc(Cl)c3)nc2C)cc1=O [Example 56] |
| 93 nM | COCCn1ncc(-n2cc(C#Cc3cccc(Cl)c3)nc2C)cc1=O [Example 55, 5-[4-(3-Chloro-phenylethynyl)-2-methyl-imidazol-1-yl]-2-(2-methoxy-ethyl)-2H-pyridazin-3-one] |
| 559 nM | Cc1cccc(C#Cc2cn(-c3ccn(CS(C)(=O)=O)c(=O)c3)c(C)n2)c1 [Example 50] |
